Earlier results as cited in patent US8734826B2 (priority 2005, dated 2014).
Like-named read-outs stand apart in the source and are kept apart here.

Key:
anal sphincter = settings: in vivo
anal fissure = settings: in vivo
[1] = tested on: internal anal sphincter smooth muscle
[2] = in vivo
[3] = tested on: pre-synaptic cholinergic nerve terminals; settings: in vivo

N=C(N)NCCC[C@H](N)C(=O)O [L-arginine]
resting anal pressure (anal sphincter): causes a reduction in resting anal pressure

CC(C[N+](C)(C)C)OC(N)=O (centres unmarked) [bethanecol]
resting anal pressure (anal sphincter): reducing resting anal pressure
healing of anal fissures (anal fissure): increased healing of anal fissures

COc1ccc([C@@H]2Sc3ccccc3N(CCN(C)C)C(=O)[C@@H]2OC(C)=O)cc1 [diltiazem]
resting anal pressure (anal sphincter): reduce resting anal pressure
resting anal pressure (anal sphincter; po): caused a reduction in resting anal pressure
fissure healing (anal fissure): results in fissure healing

O=C(NC1CCN(CCc2c[nH]c3ccccc23)CC1)c1ccccc1 [indoramin]
resting anal pressure (anal sphincter; po): reduce resting anal pressure

O=[N+]([O-])O[C@H]1CO[C@H]2[C@@H]1OC[C@H]2O[N+](=O)[O-] [isorbide dinitrate]
pain reduction and fissure healing (anal fissure): pain reduction and increased fissure healing
relaxation of internal anal sphincter smooth muscle [1]: cause a relaxation of internal anal sphincter smooth muscle

O=[N+]([O-])OCC(CO[N+](=O)[O-])O[N+](=O)[O-] [nitroglycerin]
pain reduction and fissure healing (anal fissure): pain reduction and increased fissure healing
relaxation of internal anal sphincter smooth muscle [1]: cause a relaxation of internal anal sphincter smooth muscle

CC(C)(C)NCC(O)c1ccc(O)c(CO)c1 (centres unmarked) [salbutamol]
resting anal pressure (anal sphincter): reduce resting anal pressure

Botulinum toxin
voluntary squeeze pressure (anal sphincter): reduction in voluntary squeeze pressure
fissure healing (anal fissure): healing of the fissure
pain and fissure healing (anal fissure): reduced pain and promoted fissure healing
peri-anal thrombosis [2]: peri-anal thrombosis has been reported in some patients
duration of clinical weakening of the muscle [3]: 3 to 4 months
